From US20260248927A1, “TARGETED PROTEIN DEGRADATION USING BIFUNCTIONAL COMPOUNDS THAT BIND UBIQUITIN LIGASE AND TARGET MCL-1 PROTEIN” (Captor Therapeutics S.A., priority 2022, published 2026)

Assays:
[1] = biological target: [MCL-1]-[compound of formula (I)]—[CRBN/DDB1] (Homo sapiens, UniProt Q07820+Q96SW2); assay: HTRF ternary complex formation assay; type: binding; conditions: hMcl-1 and CRBN, 180 min at 25° C.; read-out: HTRF ternary complex Average pEC50 by molecule (converted)
Experimental: The effect of the bifunctional compounds of the invention on the formation of a ternary complex composed of [MCL-1]-[compound of formula (I)]—[CRBN/DDB1] was investigated with HTRF ternary complex assay.
Mix of protein solution was prepared: • 48 nM hMcl-1 and 105.6 nM CRBN were prepared in PPI Europium detection buffer with 2 mM DTT. • Acceptor and donor stock solutions were diluted 100 times in PPI Europium detection buffer. Equal volumes of both reagents were mixed. Finally giving 3 nM of Streptavidin-Eu cryptate ([…]) and 6.67 nM of Anti-6×his-d2 ([…]).
5 μl of protein mix was dispensed to all wells. The tested compounds in dose-response were dispensed onto a white 384-well low volume plate (Greiner, 784075). DMSO was backfilled to all wells, resulting in a final DMSO content of 0.5%. Wells containing only DMSO served as a background. Next, 5 μl of solution with donor and acceptor was added to the wells.
The plate was sealed with transparent film and shaken using a VibroTurbulator for 60 sec at level 3. The plate was then spun down shortly (10 s, 1000 rcf) and incubated at 25° C. for 180 min.
The read-out was performed with plate reader (Pherastar, BMG Labtech) in time resolved fluorescence mode. Filterset: TR 337 665 620.
The results were analyzed as follows: • 1) an average of fluorescence for background signal was calculated and used as a negative control; • 2) raw fluorescence values for tested compounds were normalized against negative controls; • 3) bell shape curve was fitted to a gaussian distribution using a non-linear least squares Gauss-Newton algorithm; • 4) EC50 and pEC50 values were determined.

MV4-11 cells = assay: Cell viability assay (CellTiter-Glo), MV4-11; type: cell-based; conditions: Homo sapiens, MV4-11, 24 hours, 1% FBS, read-out: Average pCC50 by molecule MV4-11 (converted)
Text: (§1) The effect of various compounds of the invention on the viability of MV4-11 and ARH-77 cell lines was investigated, using the CTG protocol described below.
(§2) MV4-11 cell lines are derived from acute myeloid leukaemia and it is described in the literature as a MCL-1 dependent cell line, as opposed to lymphoblast-like ARH-77 cell line, which is described as independent of MCL-1 (Tron A E et al. Nat Commun. 2018; 9: 5341; Caenepeel S et al. Cancer Discov. 2018 December; 8(12): 1582-1597).
(§3) Cells (MV4-11 or ARH-77) were seeded on […] in a growth medium with 1% FBS. Next, compound stocks were pre-diluted in DMSO and added directly to the cell culture media (final DMSO concentration: 0.5%). Compound concentrations used in this assay: 1/3 dilutions starting at 30 μM (9 to 12 points). After 24 hours of incubation, cell viability was evaluated using CellTiter-Glo Luminescent Cell Viability Assay (Promega, cat #G7572). The luminescence signal was measured using a CLARIOstar Plus Multi-Mode Microplate Reader (574-590 nm).
(§4) Results were normalized to DMSO control. Collected data were analyzed using GraphPad Prism to calculate pCC50 values.

[2] = Cell viability assay (CellTiter-Glo), ARH-77; type: cell-based; conditions: human, ARH-77 cells (lymphoblast-like, MCL-1 independent), ARH-77, 24 hours, 1% FBS, read-out: Average pCC50 by molecule ARH-77 (converted)
Text: as §1, §2, §3, §4

[MCL-1]-[compound of formula (I)]—[CRBN/DDB1], sequence (Q07820 whole entry): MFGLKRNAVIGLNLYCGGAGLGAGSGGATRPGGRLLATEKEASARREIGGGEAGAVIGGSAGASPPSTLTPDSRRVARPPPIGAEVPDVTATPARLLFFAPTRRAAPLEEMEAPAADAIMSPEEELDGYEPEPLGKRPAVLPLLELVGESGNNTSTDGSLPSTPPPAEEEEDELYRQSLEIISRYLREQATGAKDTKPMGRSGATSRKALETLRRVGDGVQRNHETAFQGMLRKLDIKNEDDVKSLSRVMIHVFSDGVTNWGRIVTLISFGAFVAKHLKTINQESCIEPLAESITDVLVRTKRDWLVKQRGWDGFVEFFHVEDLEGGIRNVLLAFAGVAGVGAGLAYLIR
[MCL-1]-[compound of formula (I)]—[CRBN/DDB1], sequence (Q96SW2 whole entry): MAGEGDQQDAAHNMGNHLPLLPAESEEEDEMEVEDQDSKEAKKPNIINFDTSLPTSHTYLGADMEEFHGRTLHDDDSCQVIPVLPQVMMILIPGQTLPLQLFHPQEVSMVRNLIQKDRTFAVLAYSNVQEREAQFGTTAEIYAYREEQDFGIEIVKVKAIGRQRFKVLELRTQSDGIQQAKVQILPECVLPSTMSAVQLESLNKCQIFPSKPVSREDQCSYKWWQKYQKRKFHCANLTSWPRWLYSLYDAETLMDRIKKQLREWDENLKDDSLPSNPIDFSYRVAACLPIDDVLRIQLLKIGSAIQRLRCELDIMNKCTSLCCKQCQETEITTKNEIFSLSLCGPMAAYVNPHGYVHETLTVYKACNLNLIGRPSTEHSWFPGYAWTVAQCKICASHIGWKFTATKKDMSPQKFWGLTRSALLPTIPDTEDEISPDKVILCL
[MCL-1]-[compound of formula (I)]—[CRBN/DDB1], sequence (Q16531 whole entry partner): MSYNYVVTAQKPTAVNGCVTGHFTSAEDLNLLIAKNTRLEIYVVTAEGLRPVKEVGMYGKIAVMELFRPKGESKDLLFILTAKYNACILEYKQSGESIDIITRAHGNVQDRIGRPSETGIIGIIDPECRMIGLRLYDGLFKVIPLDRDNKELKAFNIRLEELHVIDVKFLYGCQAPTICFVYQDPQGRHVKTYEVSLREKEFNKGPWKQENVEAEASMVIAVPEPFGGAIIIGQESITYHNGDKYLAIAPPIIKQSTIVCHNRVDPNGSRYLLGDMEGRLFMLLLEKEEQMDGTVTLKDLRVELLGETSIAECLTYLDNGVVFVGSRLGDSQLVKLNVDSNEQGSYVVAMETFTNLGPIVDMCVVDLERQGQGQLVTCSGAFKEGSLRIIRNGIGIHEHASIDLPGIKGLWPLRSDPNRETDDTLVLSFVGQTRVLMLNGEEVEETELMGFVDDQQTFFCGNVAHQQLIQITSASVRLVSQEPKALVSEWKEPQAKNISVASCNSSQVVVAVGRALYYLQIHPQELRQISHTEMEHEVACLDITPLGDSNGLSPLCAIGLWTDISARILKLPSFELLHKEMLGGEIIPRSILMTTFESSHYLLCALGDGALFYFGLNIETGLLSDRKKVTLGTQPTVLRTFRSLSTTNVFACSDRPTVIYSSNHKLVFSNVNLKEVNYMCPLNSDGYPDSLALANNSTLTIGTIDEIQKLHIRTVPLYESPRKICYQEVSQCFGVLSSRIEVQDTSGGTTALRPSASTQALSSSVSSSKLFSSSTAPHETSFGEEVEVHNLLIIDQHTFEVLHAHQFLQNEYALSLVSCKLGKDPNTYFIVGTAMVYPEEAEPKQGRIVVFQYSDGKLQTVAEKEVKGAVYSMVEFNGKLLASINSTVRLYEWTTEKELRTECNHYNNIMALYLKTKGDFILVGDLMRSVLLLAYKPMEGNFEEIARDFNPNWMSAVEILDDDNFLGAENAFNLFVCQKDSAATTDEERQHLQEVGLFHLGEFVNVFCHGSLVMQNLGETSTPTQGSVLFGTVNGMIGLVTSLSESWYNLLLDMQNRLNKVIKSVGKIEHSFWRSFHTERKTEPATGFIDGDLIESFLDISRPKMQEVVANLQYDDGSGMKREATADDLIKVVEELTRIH

Structure (SMILES)	EC50 [1]	CC50 (MV4-11 cells)	CC50 at 24 h [2]
Cc1nn(C)c(C)c1-c1c(Cl)ccc2c(CCCOc3cccc4cc(F)ccc34)c(C(=O)O)n(CCN3CCN(C(=O)COc4ccc5c6c(cccc46)C(=O)N5C4CCC(=O)NC4=O)CC3)c12 (stereo not drawn) [Compound 21, 6-Chloro-1-(2-(4-(2-((1-(2,6-dioxopiperidin-3-yl)-2-oxo-1,2-dihydrobenzo[cd]indol-6-yl)oxy)acetyl)piperazin-1-yl)ethyl)-3-(3-((6-fluoronaphthalen-1-yl)oxy)propyl)-7-(1,3,5-trimethyl-1H-pyrazol-4-yl)-1H-indole-2-carboxylic acid]	< 31.6 nM	< 316 nM	> 10000 nM
Cc1nn(C)c(C)c1-c1c(Cl)ccc2c(CCCOc3cccc4cc(F)ccc34)c(C(=O)O)n(CCN3CCN(C(=O)COc4cccc5c4n(C)c(=O)n5C4CCC(=O)NC4=O)CC3)c12 (stereo not drawn) [Compound 23, 6-Chloro-1-(2-(4-(2-((1-(2,6-dioxopiperidin-3-yl)-3-methyl-2-oxo-2,3-dihydro-1H-benzo[d]imidazol-4-yl)oxy)acetyl)piperazin-1-yl)ethyl)-3-(3-((6-fluoronaphthalen-1-yl)oxy)propyl)-7-(1,3,5-trimethyl-1H-pyrazol-4-yl)-1H-indole-2-carboxylic acid]	< 316 nM	< 31.6 nM	> 10000 nM
Cc1nn(C)c(C)c1-c1c(Cl)ccc2c(CCCOc3cccc4cc(F)ccc34)c(C(=O)O)n(CCN3C(C)CN(C(=O)COc4cccc5c4CN(C4CCC(=O)NC4=O)C5=O)CC3C)c12 (stereo not drawn) [Compound 28, 6-Chloro-1-{2-[4-(2-{[2-(2,6-dioxopiperidin-3-yl)-1-oxo-2,3-dihydro-1H-isoindol-4-yl]oxy}acetyl)-2,6-dimethylpiperazin-1-yl]ethyl}-3-{3-[(6-fluoronaphthalen-1-yl)oxy]propyl}-7-(1,3,5-trimethyl-1H-pyrazol-4-yl)-1H-indole-2-carboxylic acid]	< 100 nM	< 316 nM	> 10000 nM
CCc1nn2c(c1-c1c(Cl)ccc3c(CCCOc4cccc5cc(F)ccc45)c(C(=O)O)n(CCN4CCN(C(=O)COc5cccc6c5CN(C5CCC(=O)NC5=O)C6=O)CC4)c13)COCC2 (stereo not drawn) [Compound 36, 6-Chloro-1-(2-(4-(2-((2-(2,6-dioxopiperidin-3-yl)-1-oxoisoindolin-4-yl)oxy)acetyl)piperazin-1-yl)ethyl)-7-(2-ethyl-6,7-dihydro-4H-pyrazolo[5,1-c][1,4]oxazin-3-yl)-3-(3-((6-fluoronaphthalen-1-yl)oxy)propyl)-1H-indole-2-carboxylic acid]	< 316 nM	< 100 nM	> 10000 nM
Cc1nn(C)c(C)c1-c1c(Cl)ccc2c(CCCOc3cccc4cc(F)ccc34)c(C(=O)O)n(CCN3CCN(C(=O)Cn4c(C)nc5c(C(=O)NC6CCC(=O)NC6=O)ccc(F)c54)CC3)c12 (stereo not drawn) [Compound 1, 6-Chloro-1-(2-(4-(2-(4-((2,6-dioxopiperidin-3-yl)carbamoyl)-7-fluoro-2-methyl-1H-benzo[d]imidazol-1-yl)acetyl)piperazin-1-yl)ethyl)-3-(3-((6-fluoronaphthalen-1-yl)oxy)propyl)-7-(1,3,5-trimethyl-1H-pyrazol-4-yl)-1H-indole-2-carboxylic acid]	< 100 nM	< 100 nM	> 10000 nM
CNc1cc(OCC(=O)N2CCN(CCn3c(C(=O)O)c(CCCOc4cccc5cc(F)ccc45)c4ccc(Cl)c(-c5c(C)nn(C)c5C)c43)CC2)c2c(c1)C(=O)N(C1CCC(=O)NC1=O)C2 (stereo not drawn) [Compound 12, 6-Chloro-1-(2-(4-(2-((2-(2,6-dioxopiperidin-3-yl)-6-(methylamino)-1-oxoisoindolin-4-yl)oxy)acetyl)piperazin-1-yl)ethyl)-3-(3-((6-fluoronaphthalen-1-yl)oxy)propyl)-7-(1,3,5-trimethyl-1H-pyrazol-4-yl)-1H-indole-2-carboxylic acid]	< 316 nM	< 100 nM	> 31600 nM
COc1ccc2c(c1OCC(=O)N1CCN(CCn3c(C(=O)O)c(CCCOc4cccc5cc(F)ccc45)c4ccc(Cl)c(-c5c(C)nn(C)c5C)c43)CC1)CN(C1CCC(=O)NC1=O)C2=O (stereo not drawn) [Compound 7, 6-Chloro-1-{2-[4-(2-{[2-(2,6-dioxopiperidin-3-yl)-5-methoxy-1-oxo-2,3-dihydro-1H-isoindol-4-yl]oxy}acetyl)piperazin-1-yl]ethyl}-3-{3-[(6-fluoronaphthalen-1-yl)oxy]propyl}-7-(1,3,5-trimethyl-1H-pyrazol-4-yl)-1H-indole-2-carboxylic acid]	< 100 nM	< 100 nM	> 10000 nM
Cc1nn(C)c(C)c1-c1c(Cl)ccc2c(CCCOc3cccc4cc(F)ccc34)c(C(=O)O)n(CCN3CCN(C(=O)COc4cccc5c4C(C)N(C4CCC(=O)NC4=O)C5=O)CC3)c12 (stereo not drawn) [Compound 15, 6-Chloro-1-{2-[4-(2-{[2-(2,6-dioxopiperidin-3-yl)-3-methyl-1-oxo-2,3-dihydro-1H-isoindol-4-yl]oxy}acetyl)piperazin-1-yl]ethyl}-3-{3-[(6-fluoronaphthalen-1-yl)oxy]propyl}-7-(1,3,5-trimethyl-1H-pyrazol-4-yl)-1H-indole-2-carboxylic acid]	< 316 nM	< 100 nM	> 10000 nM
Cc1nc2c(OCC(=O)N3CCN(CCn4c(C(=O)O)c(CCCOc5cccc6cc(F)ccc56)c5ccc(Cl)c(-c6c(C)nn(C)c6C)c54)CC3)cccc2cc1C1CCC(=O)NC1=O (stereo not drawn) [Compound 4, 6-Chloro-1-{2-[4-(2-{[3-(2,6-dioxopiperidin-3-yl)-2-methylquinolin-8-yl]oxy}acetyl)piperazin-1-yl]ethyl}-3-{3-[(6-fluoronaphthalen-1-yl)oxy]propyl}-7-(1,3,5-trimethyl-1H-pyrazol-4-yl)-1H-indole-2-carboxylic acid]	< 100 nM	< 316 nM	> 10000 nM
Cc1nc2c(C(=O)NC3CCC(=O)NC3=O)cc(OCC(=O)N3CCN(CCn4c(C(=O)O)c(CCCOc5cccc6cc(F)ccc56)c5ccc(Cl)c(-c6c(C)nn(C)c6C)c54)CC3)cc2[nH]1 (stereo not drawn) [Compound 2, 6-Chloro-1-(2-(4-(2-((4-((2,6-dioxopiperidin-3-yl)carbamoyl)-2-methyl-1H-benzo[d]imidazol-6-yl)oxy)acetyl)piperazin-1-yl)ethyl)-3-(3-((6-fluoronaphthalen-1-yl)oxy)propyl)-7-(1,3,5-trimethyl-1H-pyrazol-4-yl)-1H-indole-2-carboxylic acid]	< 100 nM	< 100 nM	> 10000 nM
Cc1nn(C)c(C)c1-c1c(Cl)ccc2c(CCCOc3cccc4cc(F)ccc34)c(C(=O)O)n(CCN3CCN(C(=O)COc4c(N(C)C)ccc5c4CN(C4CCC(=O)NC4=O)C5=O)CC3)c12 (stereo not drawn) [Compound 10, 6-Chloro-1-(2-(4-(2-((5-(dimethylamino)-2-(2,6-dioxopiperidin-3-yl)-1-oxoisoindolin-4-yl)oxy)acetyl)piperazin-1-yl)ethyl)-3-(3-((6-fluoronaphthalen-1-yl)oxy)propyl)-7-(1,3,5-trimethyl-1H-pyrazol-4-yl)-1H-indole-2-carboxylic acid]	< 316 nM	< 316 nM	> 10000 nM
Cc1nc2cc(C(=O)NCC(=O)N3CCN(CCn4c(C(=O)O)c(CCCOc5cccc6cc(F)ccc56)c5ccc(Cl)c(-c6c(C)nn(C)c6C)c54)CC3)ccc2cc1C1CCC(=O)NC1=O (stereo not drawn) [Compound 6, 6-Chloro-1-(2-(4-((3-(2,6-dioxopiperidin-3-yl)-2-methylquinoline-7-carbonyl)glycyl)piperazin-1-yl)ethyl)-3-(3-((6-fluoronaphthalen-1-yl)oxy)propyl)-7-(1,3,5-trimethyl-1H-pyrazol-4-yl)-1H-indole-2-carboxylic acid]	< 100 nM	< 100 nM	> 10000 nM
